Laboratory results as given in patent US20060069132A1, “Azolecarboxamide herbicides” (priority 2004, published 2006).

How the values were obtained:
barnyardgrass [1] = assay: Test A pre-/postemergence herbicide test; type: in vivo, Echinochloa crus-galli
Summary of the method: (§1)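 Sandy loam soil given preemergence directed spray; plants at 2 to 10 cm, one- to two-leaf stage, sprayed to runoff postemergence, compounds in non-phytotoxic solvent with surfactant. Injury rated visually versus untreated controls after about ten greenhouse days, 0 (no effect) to 100 (complete control); dash means not tested.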

wheat = assay: Test B postemergence herbicide test; type: in vivo, Triticum aestivum; design: key to Wheat plant response rating: 0 = no effect, 100 = complete control; conditions: postemergence, visual rating, scale 0 (no effect) to 100 (complete control)
Summary of the method: (§2)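 Scale 0–100: zero equals no visible effect, 100 complete control, judged by eye relative to controls. Timing: 13 to 15 days in greenhouse post-treatment. Growth stage at spraying: two leaves (paddy) or one to four leaves, 2–18 cm (postemergence).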

large crabgrass [2] = assay: Test B pre-/postemergence herbicide test; type: in vivo, Digitaria sanguinalis; conditions: for Plant response rating, Crabgrass, Large: preemergence; for Crabgrass, Large plant response rating: postemergence, visual rating, scale 0 (no effect) to 100 (complete control)
Summary of the method: (§3)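 Flooded paddy rice and barnyardgrass were treated at the 2-leaf stage; upland plantings received compound either on sown seed or on 1- to 4-leaf seedlings. All were kept 13–15 days in a greenhouse and scored visually, 0–100, relative to untreated plants.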

barnyardgrass [3] = assay: Test B flooded paddy test; type: in vivo, Echinochloa crus-galli; conditions: 1000 g ai/ha, visual rating, scale 0 to 100 (0 no effect, 100 complete control), 13 to 15 days
Summary of the method: (§4)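 Read-out: visual comparison with controls, scored 0 to 100, where 100 means complete control and 0 no effect. Formulated chemicals were applied postemergence to plants 2–18 cm tall (1- to 4-leaf), or to flooded-paddy plants at the 2-leaf stage, then held 13 to 15 days under glass.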

Surinam grass = assay: Test B pre-/postemergence herbicide test; type: in vivo, Urochloa decumbens; conditions: for Plant response rating, Surinam Grass: preemergence; for Surinam Grass plant response rating: postemergence, visual rating, scale 0 (no effect) to 100 (complete control)
Summary of the method: as §3

blackgrass = assay: Test B postemergence herbicide test; type: in vivo, Alopecurus myosuroides; conditions: postemergence, visual rating, scale 0 (no effect) to 100 (complete control)
Summary of the method: as §4

wild oat = assay: Test B postemergence herbicide test; type: in vivo, Avena fatua; conditions: postemergence, visual rating, scale 0 (no effect) to 100 (complete control)
Summary of the method: as §2

rice [4] = assay: Test B pre-/postemergence herbicide test; type: in vivo, Oryza sativa; conditions: 500 g ai/ha; visual rating 0-100, 0 no effect, 100 complete control; preemergence
Summary of the method: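 Evaluation is visual, comparing treated with control plants on a scale where 0 means no effect and 100 means full control. Treatments were preemergence, or postemergence on seedlings 2–18 cm tall, and held 13–15 days in the greenhouse.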

giant foxtail [5] = assay: Test B pre-/postemergence herbicide test; type: in vivo, Setaria faberi; conditions: for Plant response rating, Foxtail, Giant: preemergence; for Foxtail, Giant plant response rating: postemergence, visual rating, scale 0 (no effect) to 100 (complete control)
Summary of the method: as §3

ducksalad = assay: Test B flooded paddy test; type: in vivo, Heteranthera limosa; conditions: 1000 g ai/ha, visual rating, scale 0 to 100 (0 no effect, 100 complete control), 13 to 15 days
Summary of the method: as §4

barnyardgrass [6] = assay: Test B pre-/postemergence herbicide test; type: in vivo, Echinochloa crus-galli; conditions: for Plant response rating, Barnyardgrass: preemergence; for Barnyardgrass plant response rating: postemergence, visual rating, scale 0 (no effect) to 100 (complete control)
Summary of the method: (§5)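 Pre: seeds sown, then sprayed. Post: 1–4-leaf plants (2–18 cm) sprayed at the same time. Paddy: flooded, treated at 2-leaf stage. Formulation: non-phytotoxic solvent with surfactant. Greenhouse 13–15 days; visual 0–100 score relative to controls.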

velvetleaf [7] = assay: Test B pre-/postemergence herbicide test; type: in vivo, Abutilon theophrasti; conditions: for Plant response rating, Velvetleaf: preemergence; for Velvetleaf plant response rating: postemergence, visual rating, scale 0 (no effect) to 100 (complete control)
Summary of the method: as §3

rice [8] = assay: Test B flooded paddy test; type: in vivo, Oryza sativa; conditions: 1000 g ai/ha, visual rating, scale 0 to 100 (0 no effect, 100 complete control), 13 to 15 days
Summary of the method: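 After treating 2-leaf paddy plants or 2–18 cm postemergence plants (1 to 4 leaves) with formulated chemical, researchers kept them in a greenhouse for 13–15 days. Effects were judged visually versus controls: 0 indicates none, 100 total control.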

morningglory [9] = assay: Test B pre-/postemergence herbicide test; type: in vivo, Ipomoea coccinea; conditions: for Plant response rating, Morningglory: preemergence; for Morningglory plant response rating: postemergence, visual rating, scale 0 (no effect) to 100 (complete control)
Summary of the method: as §5

pigweed = assay: Test B pre-/postemergence herbicide test; type: in vivo, Amaranthus retroflexus; conditions: for Plant response rating, Pigweed: preemergence; for Pigweed plant response rating: postemergence, visual rating, scale 0 (no effect) to 100 (complete control)
Summary of the method: as §3

[10] = tested on: small flower umbrella sedge; assay: Test B flooded paddy test; type: in vivo, Cyperus difformis; conditions: 1000 g ai/ha, visual rating, scale 0 to 100 (0 no effect, 100 complete control), 13 to 15 days
Summary of the method: as §4

corn = assay: Test B pre-/postemergence herbicide test; type: in vivo, Zea mays; conditions: for Plant response rating, Corn: preemergence; for Corn plant response rating: postemergence, visual rating, scale 0 (no effect) to 100 (complete control)
Summary of the method: as §3

redroot pigweed = assay: Test A pre-/postemergence herbicide test; type: in vivo, Amaranthus retroflexus
Summary of the method: as §1

morningglory [11] = assay: Test A pre-/postemergence herbicide test; type: in vivo, Ipomoea spp.
Summary of the method: as §1

lambsquarters = assay: Test B pre-/postemergence herbicide test; type: in vivo, Chenopodium album; conditions: for Plant response rating, Lambsquarters: preemergence; for Lambsquarters plant response rating: postemergence, visual rating, scale 0 (no effect) to 100 (complete control)
Summary of the method: as §3

giant foxtail [12] = assay: Test A pre-/postemergence herbicide test; type: in vivo, Setaria faberi
Summary of the method: as §1

large crabgrass [13] = assay: Test A pre-/postemergence herbicide test; type: in vivo, Digitaria sanguinalis
Summary of the method: as §1

cocklebur = assay: Test B pre-/postemergence herbicide test; type: in vivo, Xanthium strumarium; conditions: for Plant response rating, Cocklebur: preemergence; for Cocklebur plant response rating: postemergence, visual rating, scale 0 (no effect) to 100 (complete control)
Summary of the method: as §5

velvetleaf [14] = assay: Test A pre-/postemergence herbicide test; type: in vivo, Abutilon theophrasti
Summary of the method: as §1

[15] = Postemergence, 250 g ai/ha, 0 to 100 scale, 0 no effect, 100 complete control
[16] = Postemergence, 1000 g ai/ha, 0 to 100 scale, 0 no effect, 100 complete control
[17] = Preemergence, 1000 g ai/ha, visual rating, 0 to 100 scale (0 no effect, 100 complete control)
[18] = preemergence, 250 g ai/ha, visual injury, 0 to 100 scale (0 no effect, 100 complete control)
[19] = 500 g ai/ha, visual rating 0-100, 0 no effect, 100 complete control
[20] = 125 g ai/ha, 0 to 100 scale, 0 is no effect, 100 is complete control

## CC(C)(C)c1cc(C(=O)Nc2cccc(SC(F)(F)F)c2)n(CCF)n1 [Compound 132]
Barnyardgrass [1]; [15]
  Barnyardgrass plant response rating: 20
Barnyardgrass [1]; [16]
  Plant response rating, Barnyardgrass: 30
Barnyardgrass [1]; [17]
  Barnyardgrass plant response rating: 10
Barnyardgrass [1]; [18]
  Barnyardgrass plant response rating: 0
wheat; 125 g ai/ha
  Wheat plant response rating: 10
wheat; 500 g ai/ha
  Wheat plant response rating: 20
Large crabgrass [2]; [19]
  Plant response rating, Crabgrass, Large: 100
Large crabgrass [2]; 125 g ai/ha
  Crabgrass, Large plant response rating: 30
Large crabgrass [2]; 500 g ai/ha
  Crabgrass, Large plant response rating: 40
Large crabgrass [2]; [20]
  Plant response rating, Crabgrass, Large: 90
Barnyardgrass [3]
  Barnyardgrass plant response rating: 30
Surinam grass; [19]
  Plant response rating, Surinam Grass: 70
Surinam grass; 125 g ai/ha
  Surinam Grass plant response rating: 40
Surinam grass; 500 g ai/ha
  Surinam Grass plant response rating: 60
Surinam grass; [20]
  Plant response rating, Surinam Grass: 40
blackgrass; 125 g ai/ha
  Blackgrass plant response rating: 10
blackgrass; 500 g ai/ha
  Blackgrass plant response rating: 40
Wild oat; 125 g ai/ha
  Oat, Wild plant response rating: 20
Wild oat; 500 g ai/ha
  Oat, Wild plant response rating: 20
Rice [4]
  Plant response rating, Rice: 0
Giant foxtail [5]; [19]
  Plant response rating, Foxtail, Giant: 80
Giant foxtail [5]; 125 g ai/ha
  Foxtail, Giant plant response rating: 30
Giant foxtail [5]; 500 g ai/ha
  Foxtail, Giant plant response rating: 40
Giant foxtail [5]; [20]
  Plant response rating, Foxtail, Giant: 30
ducksalad
  Ducksalad plant response rating: 10
Barnyardgrass [6]; [19]
  Plant response rating, Barnyardgrass: 50
Barnyardgrass [6]; 125 g ai/ha
  Barnyardgrass plant response rating: 50
Barnyardgrass [6]; 500 g ai/ha
  Barnyardgrass plant response rating: 60
Barnyardgrass [6]; [20]
  Plant response rating, Barnyardgrass: 10
Velvetleaf [7]; [19]
  Plant response rating, Velvetleaf: 70
Velvetleaf [7]; 125 g ai/ha
  Velvetleaf plant response rating: 60
Velvetleaf [7]; 500 g ai/ha
  Velvetleaf plant response rating: 60
Velvetleaf [7]; [20]
  Plant response rating, Velvetleaf: 30
Rice [8]
  Rice plant response rating: 0
Morningglory [9]; [19]
  Plant response rating, Morningglory: 20
Morningglory [9]; 125 g ai/ha
  Morningglory plant response rating: 60
Morningglory [9]; 500 g ai/ha
  Morningglory plant response rating: 70
Morningglory [9]; [20]
  Plant response rating, Morningglory: 10
pigweed; [19]
  Plant response rating, Pigweed: 100
pigweed; 125 g ai/ha
  Pigweed plant response rating: 70
pigweed; 500 g ai/ha
  Pigweed plant response rating: 90
pigweed; [20]
  Plant response rating, Pigweed: 100
[10]
  Sedge, Umbrella plant response rating: 40
corn; [19]
  Plant response rating, Corn: 10
corn; 125 g ai/ha
  Corn plant response rating: 20
corn; 500 g ai/ha
  Corn plant response rating: 20
corn; [20]
  Plant response rating, Corn: 10
Redroot pigweed; [15]
  Pigweed plant response rating: 75
Redroot pigweed; [16]
  Plant response rating, Pigweed: 65
Redroot pigweed; [17]
  Pigweed plant response rating: 40
Redroot pigweed; [18]
  Pigweed plant response rating: 30
Morningglory [11]; [15]
  Morningglory plant response rating: 10
Morningglory [11]; [16]
  Plant response rating, Morningglory: 20
Morningglory [11]; [17]
  Morningglory plant response rating: 10
Morningglory [11]; [18]
  Morningglory plant response rating: 5
lambsquarters; [19]
  Plant response rating, Lambsquarters: 90
lambsquarters; 125 g ai/ha
  Lambsquarters plant response rating: 100
lambsquarters; 500 g ai/ha
  Lambsquarters plant response rating: 100
lambsquarters; [20]
  Plant response rating, Lambsquarters: 60
Giant foxtail [12]; [15]
  Foxtail, Giant plant response rating: 15
Giant foxtail [12]; [16]
  Plant response rating, Foxtail, Giant: 20
Giant foxtail [12]; [17]
  Foxtail, Giant plant response rating: 40
Giant foxtail [12]; [18]
  Foxtail, Giant plant response rating: 25
Large crabgrass [13]; [15]
  Crabgrass, Large plant response rating: 20
Large crabgrass [13]; [16]
  Plant response rating, Crabgrass, Large: 25
Large crabgrass [13]; [17]
  Crabgrass, Large plant response rating: 35
Large crabgrass [13]; [18]
  Crabgrass, Large plant response rating: 20
cocklebur; [19]
  Plant response rating, Cocklebur: 0
cocklebur; 125 g ai/ha
  Cocklebur plant response rating: 90
cocklebur; 500 g ai/ha
  Cocklebur plant response rating: 90
cocklebur; [20]
  Plant response rating, Cocklebur: 0
Velvetleaf [14]; [15]
  Velvetleaf plant response rating: 20
Velvetleaf [14]; [16]
  Plant response rating, Velvetleaf: 30
Velvetleaf [14]; [17]
  Velvetleaf plant response rating: 20
Velvetleaf [14]; [18]
  Velvetleaf plant response rating: 15
